The source of these data is patent US4908138A (priority 1987, dated 1990).

Assay [1] can be described thus: Inhibition of conversion of calcium hydrogen phosphate into hydroxyl apatite (protons released). Conditions: protons released in a calcium phosphate solution supersaturated at 60° C. As for the experimental part:
A crucial step in the formation of tartar is the conversion of calcium hydrogen phosphate into hydroxyl apatite. […] To this end, the degree of inhibition of this conversion was measured by determining the protons released in a calcium phosphate solution supersaturated at 60° C. in accordance with the following equation: […]

Assay [2] can be described thus: Hampshire test (calcium complexing power). Type of assay: physicochemical. The settings on record: pH 11; titrated with 0.2 molar calcium chloride until it remained cloudy; used as tetrasodium salt, converted for the pure diphosphonic acid. As for the experimental part:
The calcium complexing power was determined by the Hampshire test in which the hydroxyacetonitrile diphosphonic acid, to which Na2 CO3 has been added, was titrated with a 0.2 molar calcium chloride solution at pH 11 until it remained cloudy. Hydroxyacetonitrile diphosphonic acid was used in the form of its tetrasodium salt and the measured values obtained were converted for the pure diphosphonic acid.

Assay [3] is described as follows: Reduction of the solubility of synthetic apatite after treatment. Conditions: pH 5, consumption of lactic acid; comparison with untreated apatite. Here is the method:
The hydroxyacetonitrile diphosphonic acid of the invention effectively reduces the solubility of apatite by absorbing it on the tartar surface. To determine this property, the solubility of synthetic apatite after treatment with the hydroxyacetonitrile diphosphonic acid is determined by comparison with untreated apatite. To this end, a suspension of apatite is kept at pH 5 by neutralizing the hydroxyl ions passing into solution with lactic acid and determining the consumption of acid required for this purpose.

For the compound `O=P(O)(O)C(O)P(=O)(O)O` [Hydroxymethane diphosphonic acid], in assay [1], the “degree of inhibition of conversion of calcium hydrogen phosphate into hydroxyl apatite” value was 81%.
`O=P(O)(O)C(O)P(=O)(O)O` [drawing 8]: the calcium complexing power in assay [2] came to 130 mg CaCO3 /g acid.
In the case of `N#CC(O)(P(=O)(O)O)P(=O)(O)O` [Hydroxyacetonitrile diphosphonic acid, hydroxyacetonitrile diphosphonic acid], the “Reduction of the solubility of apatite” value in assay [3] came out at 65%. In addition, in assay [2], the calcium complexing power was 520 mg CaCO3 /g acid. Moreover, the “degree of inhibition of conversion of calcium hydrogen phosphate into hydroxyl apatite” value in assay [1] was determined as 91%.
On to `CC(O)(P(=O)(O)O)P(=O)(O)O`, for which the “Reduction of the solubility of apatite” value in assay [3] was 53%.
